The series can be described thus: gradient 5% acetonitrile 3 min, to 50% in 2 min, to 85% in 15 min, held 3 min, 100 µL/min. To be noted: column: Zorbax Extend-C18 2.1 x 50 mm; eluents: water / acetonitrile, 0.1% formic acid. A digest of the protocol:
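Standards, all pure, were combined into mixtures of ~100 molecules and run at 100 μL/min on a Zorbax Extend-C18 column (2.1 × 50 mm, 1.8 μm) with water and acetonitrile, each containing 0.1% formic acid. A coupled quadrupole time-of-flight mass spectrometer operated in positive and negative ionization mode. Retention time values come from computationally picked adduct peaks, each inspected manually.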
Molecule `Cc1ccc(N2C=C(C(=O)N3CCCC3)S(=O)(=O)c3ccccc32)cc1F` had an RP-LC retention time of 813 s. The result for `CCCN(c1ccc(OCC)cc1)c1nc(C(=O)OCC)nc2ccccc12` reads 1120 s; that for `COc1ccccc1CNC(=O)c1nnc(-c2ccc(S(=O)(=O)N3CCOCC3)cc2)o1`, 858 s; that for `CC1=C(C(=O)N(CC(=O)NC2CCC(C)CC2)c2ccc(Cl)cc2)SCCO1` (stereo not drawn), 1040 s.

In the case of `COc1cc(OC)cc(C(=O)N2CCC3(CC2)N=C(c2ccc(Br)cc2)C(=O)N3)c1`, the RP-LC retention time was determined as 907 s. Molecule `COc1cccc(CN2CCc3nc(N4CCCC4)ncc3C2)c1OC` came in with an RP-LC retention time of 610 s.

In turn, `COCCN1C(=O)c2cc(-c3ccc(OC)cc3)nn2CC1(C)C(=O)NCc1ccccc1` (stereo not drawn) had an RP-LC retention time of 834 s. The result for `CCOc1ccc(N2C(=O)C3N=NN(Cc4nc(-c5ccc(C)cc5)no4)C3C2=O)cc1` (stereo not drawn) reads 1040 s. Molecule `Fc1ccccc1-c1noc(-c2nc(Cc3ccccc3)no2)n1` yielded an RP-LC retention time of 1160 s. With `COc1cccc(-c2cn3ccn(-c4ccc(F)c(Cl)c4)c(=O)c3n2)c1`, the RP-LC retention time is 859 s. Molecule `CC(C)(C)c1noc(-c2cccnc2-n2cnc(C(=O)Nc3ccc(F)cc3)c2)n1` returned an RP-LC retention time of 984 s. The result for `COc1cccc(C(=O)NCc2nnnn2C2CCCCC2)c1OC` reads 784 s; that for `O=C(NCc1c(F)cccc1F)C(=O)NCc1n[nH]c(=O)c2ccccc12`, 695 s; that for `CC(C)CC(=O)Nc1ccc(-n2cnc(C(=O)NC3CC3)c2)nc1`, 668 s. Molecule `CCOc1ccc2ncc(C(=O)c3ccccc3)c(N3CCN(CC)CC3)c2c1` yielded an RP-LC retention time of 591 s.

On to `CCOC(=O)Cc1ccc(NC(=O)N2CCN(CC)c3ncccc32)cc1`, for which the RP-LC retention time turned out to be 641 s. The result for `CCCNC(=O)c1ccc2c(=O)n(Cc3ccc(C)cc3)c(N(CC)CC)nc2c1` reads 1060 s.

With `CCCCOC(=O)c1ccc(NC(=O)c2ccc(N3CCCCS3(=O)=O)cc2)cc1`, the RP-LC retention time came to 976 s.

The molecule `CN(C)c1ccc(-c2nc3cnccn3c2Nc2ccc3c(c2)OCO3)cc1` yielded an RP-LC retention time of 737 s. The result for `NC(=O)C1CCCN(c2cccc3c2C(=O)c2ccccc2C3=O)C1` (stereo not drawn) reads 652 s.

For `COc1ccc(-n2nc(C)c3sc(N4CCCC(C(=O)NC5CCCCC5)C4)nc32)cc1` (stereo not drawn), the RP-LC retention time came to 1110 s. As to `COc1ccccc1NC(=O)N1C[C@@H](F)C[C@H]1C(=O)N1CCc2ccccc2C1`, the RP-LC retention time was found to be 828 s.

As to `C(=C\c1ccc(/C=C/c2ccccc2)nn1)/c1ccccc1`, the RP-LC retention time amounted to 1140 s. `O=C(Cc1csc(SCc2cccc(Cl)c2)n1)Nc1ccc2c(c1)OCCO2` yielded an RP-LC retention time of 953 s. Regarding `CC(C)CC(=O)N1CCc2c(c(-c3nncn3C(C)C)nn2C)C1`, the RP-LC retention time is 682 s. Then `Cc1ccc(S(=O)(=O)Nc2cccc(-c3cn4cccc(C)c4n3)c2)c(C)c1`, with 703 s.

For the molecule `Cc1nc(-c2ccccc2OC2CN(S(=O)(=O)c3c(C)noc3C)C2)no1`, the RP-LC retention time stood at 904 s. The molecule `Cc1noc(-c2ccc(OC3CN(S(=O)(=O)c4c(C)nn(C)c4C)C3)cc2)n1` yielded an RP-LC retention time of 807 s. Then `COc1ccc(C(=O)N2C[C@@H]3C[C@H]2C[C@@H]3NC(=O)c2cccs2)c(C)c1`, with 741 s; and `Cc1cccc(CNC(=O)CN2CCN(Cc3cccc(Cl)c3)C2=O)c1`, with 847 s.

Consider `CCNC(=O)C1CCCN(c2nc3ncn(CC(=O)Nc4ccc(Cl)cc4F)c(=O)c3s2)C1` (stereo not drawn), for which the RP-LC retention time came to 709 s. The result for `CCC(C)[C@H](NC(=O)N1C[C@H]2C[C@@H](C1)c1cccc(=O)n1C2)C(=O)OC` (stereo partly drawn) reads 624 s; that for `CCOC(=O)c1noc2nc(C)nc(Nc3cc(C)cc(C)c3)c12`, 1060 s. The molecule `CCCCOc1ccc(C(=O)Nc2ccc(-c3nc(C)no3)cc2)cc1` registered an RP-LC retention time of 1070 s. With `Cc1ccc(NC(=O)N2CCc3nc(-c4ccccc4)ncc3C2)cc1C`, the RP-LC retention time is 995 s. In the case of `CCCC(C)NC(=O)c1ccc(Cl)c(Cl)c1` (stereo not drawn), the RP-LC retention time turned out to be 1130 s.

Take `CCNc1cc(N2CCC(CCC(=O)NCc3cccc(C)c3)CC2)ncn1`: the RP-LC retention time turned out to be 659 s. In the case of `COc1ccc(OC)c(NC(=O)Cn2nc3c4cc(Cl)ccc4ncn3c2=O)c1`, the RP-LC retention time is 740 s.

As for `O=C(c1ccco1)N1N=C(c2ccco2)CC1c1ccc2nccnc2c1` (stereo not drawn), the RP-LC retention time is 718 s. The result for `CCCCCN1C(=O)C2(NCCc3c2[nH]c2ccc(C)cc32)c2ccccc21` (stereo not drawn) reads 792 s; that for `CCc1ccccc1NC(=O)C1CCN(S(=O)(=O)c2ccc3c(c2)sc(=O)n3CC)CC1`, 932 s; that for `CCCNC(=O)Cn1nc2cc(-c3ccc(OC)cc3)nc(C)n2c1=O`, 633 s.

With `CCCS(=O)(=O)N1CCc2c(c(CN(C(=O)c3ccccc3)c3ccccc3)nn2C)C1`, the RP-LC retention time was 833 s. The result for `O=C(NCC(=O)N1CCCc2ccccc21)C1CCN(S(=O)(=O)c2ccc(Cl)cc2)CC1` reads 914 s; that for `Cc1ccc(C(=O)NCc2nc(-c3ccc(-c4csc(C)n4)cc3)no2)cc1`, 964 s; that for `Cc1ccc(C(=O)N2CCC(Nc3ncnc4c3CCC4)CC2)cn1`, 583 s. Regarding `CC1CN(C(=O)CSc2nc(-c3ccco3)cc(C(F)(F)F)n2)CC(C)O1` (stereo not drawn), the RP-LC retention time stood at 952 s.

With `COc1ccc(-c2nnc(SCC(=O)Nc3nccs3)o2)cc1`, the RP-LC retention time was found to be 720 s.

As for `Cc1ccccc1-c1noc(Cn2c(=O)n(Cc3cccc(Cl)c3)c(=O)c3sccc32)n1`, the RP-LC retention time was determined as 819 s. The result for `Cc1ccc(-c2cc3n(n2)CCCN(C(=O)c2ccncc2)C3)cc1` reads 689 s.

`CCc1nnc([C@@H]2CC(F)(F)CN2C(=O)Cc2cc(C)no2)o1` gave an RP-LC retention time of 674 s. `O=C(CNC(=O)c1ccc2c(c1)OCO2)Nc1nc2ccccc2[nH]1` had an RP-LC retention time of 611 s.

Consider `Cn1cc(C(=O)N2CCC(c3noc(-c4ccccc4)n3)C2)cn1` (stereo not drawn), for which the RP-LC retention time is 712 s. As to `Cc1cnc(C(=O)N[C@@H]2CCC[C@@H]2C(=O)N2CCSCC2)cn1`, the RP-LC retention time worked out at 633 s. `Cc1ccc2c(c1)N(CC#N)N=C(C(=O)N1CCC(C)CC1)S2(=O)=O` came in with an RP-LC retention time of 842 s. The result for `Nc1ccc2c(c1)N=[N+]([O-])c1cc(N)ccc1C2` reads 628 s.

`O=C(CSC1CCCC1)N1CCCC(c2nnc(-c3ccccc3F)s2)C1` (stereo not drawn) gave an RP-LC retention time of 994 s. As to `Cc1cc(C)n(Cc2ccc(C(=O)N3CCN(c4cc(=O)n(C)c(=O)n4C)CC3)o2)n1`, the RP-LC retention time amounted to 629 s. Then `CCCNC(=O)C1CCN(c2ccc(SCC(=O)Nc3ccc(F)cc3F)nn2)CC1`, with 670 s; and `COc1ccc(Cl)c2c(=O)c3c([nH]c12)CCN(CC(=O)NCc1ccc(Cl)cc1)C3`, with 762 s. The molecule `CCN1CCN(Cc2ccc(C(=O)NCc3ccccc3C(F)(F)F)cc2)C(=O)C1=O` gave an RP-LC retention time of 721 s.

With `CCc1cccc(NC(=O)c2c(O)c3cccnc3n(-c3ccccc3)c2=O)c1`, the RP-LC retention time is 1430 s. The result for `Cc1csc(NC(=O)C2CCN(S(=O)(=O)c3cc(C(=O)N4CCCC4)n(C)c3)CC2)n1` reads 697 s; that for `Cc1cc(S(=O)(=O)N2CCc3nc(-c4ccc(Cl)cc4)ncc3C2)ccc1F`, 1260 s; that for `O=C(Nc1ccc(F)c(Cl)c1)c1cn2c(n1)CCCC2`, 648 s. The result for `CCOc1ccccc1-n1ccn(Cc2nc(-c3cccc(F)c3)no2)c(=O)c1=O` reads 876 s; that for `CN1C(=O)C2(CCN(C(=O)c3ccccc3)C2)c2ccccc21` (stereo not drawn), 707 s; that for `Cc1oc2c(c1C(=O)Nc1cccc(C(F)(F)F)c1)C1=NCCN1C=N2`, 652 s. Regarding `Cc1noc(-c2ccnc(-n3cnc(C(=O)N(C)C4CCCCC4)c3)c2)n1`, the RP-LC retention time was 737 s. Then `Cn1nc(CO)c2c1CCN(C(=O)c1ccc3[nH]ccc3c1)C2`, with 591 s. The result for `Cc1ccccc1CC(=O)NC(CC(C)C)C(=O)Nc1nc2ccccc2[nH]1` (stereo not drawn) reads 763 s. In turn, `CC(C)COc1cc(=O)n2c(c1C(=O)NCCCN1CCOCC1)CCCCC2` returned an RP-LC retention time of 570 s.

Turning to `COc1ccc(OC)c(Nc2c(C(=O)N3CCC(C)CC3)cnc3nc(C)ccc23)c1`, the RP-LC retention time was found to be 662 s.

In turn, `COc1cccc(Nc2nc(C)c(C(=O)Nc3ccc(F)cc3F)s2)c1` had an RP-LC retention time of 955 s. Then `Cc1ccc(NC(=O)N2CCCC2c2nc(-c3cccc(Cl)c3)no2)cc1` (stereo not drawn), with 1110 s; and `COc1cccc(NS(=O)(=O)c2cc(-c3nc(C)c(C(=O)N4CCCC4)s3)cs2)c1`, with 844 s. `COc1cccc2cc(C(=O)Nc3nnc(Cc4ccc(Cl)s4)o3)oc12`: the RP-LC retention time amounted to 860 s. In turn, `CCN1CCN(c2cc(C)c3cc(NC(=S)NCc4ccc(C)cc4)ccc3n2)CC1` had an RP-LC retention time of 617 s.
